For assay [1], the target named is T1, E. coli peptide deformylase (PDFEc) (Escherichia coli, UniProt P0A6K3). Type of assay: biochemical. The following applies: for Initial rate: AMT 500 µM; for remaining activity at 500 µM: read-out: % of control, AMT 500 µM.
The target of assay [2] is T1, E. coli peptide deformylase (PDFEc). The assay can be described thus: Slow-binding inhibition of PDFEc, kobs as a function of inhibitor concentration. Type of assay: biochemical.
The mark [3] stands for this setting: solvent dimethylformamide, 1 week post.
[4] abbreviates: solvent ethanol, more than 2 days incubation.

SMILES strings stand for the structures. Read-outs that look alike come from different tables or passages of the source.

T1 sequence (P0A6K3 whole entry): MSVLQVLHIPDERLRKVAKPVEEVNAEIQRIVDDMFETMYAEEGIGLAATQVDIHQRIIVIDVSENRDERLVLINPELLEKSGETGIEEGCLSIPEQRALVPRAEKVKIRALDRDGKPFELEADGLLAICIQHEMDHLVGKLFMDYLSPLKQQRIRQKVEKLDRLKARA

With `Nc1nnc(S)s1` [AMT, 2-amino-5-mercapto-1,3,4-thiadiazole], in assay [1] (500 µM AMT incubated in DMF for 30 min), the “initial rate of the enzyme catalyzed reaction versus control” value was “barely lower than that of the control”. Further, the Initial rate in assay [1] (solvent acetonitrile, more than 2 days incubation) is on record as 16.3 mOD min^−1; in assay [1] (setting [3]), 7.9 mOD min^−1; in assay [1] (solvent dimethylformamide, tested immediately), 17.0 mOD min^−1; in assay [1] (solvent dimethylsulfoxide, more than 2 days incubation), 15.9 mOD min^−1; in assay [1] (setting [4]), 16.9 mOD min^−1. For the same compound, in assay [1] (AMT freshly prepared in DMF, or dissolved in any other solvent and aged at 25 °C for any length of time), the “inhibitory effect on PDFEc” value is on record as “No inhibitory effect”. The “inhibition of PDFEc” value in assay [1] (AMT incubated with 0.06% H2O2 in buffer) is on record as “no inhibition”. For the same compound, the remaining activity at 500 µM in assay [1] (setting [3]) amounted to 47%; in assay [1] (setting [4]) it was 100%. In addition, the “enhancement of apparent binding affinity by the slow-binding step (Ki / Ki^*)” value in assay [2] is listed as “about 30 fold”.
